Results on five molecules are retold here after article PMC3281113, “Recognition of Anesthetic Barbiturates by a Protein Binding Site: A High Resolution Structural Analysis” (PLoS ONE, 2012).

One data set deals with T1, horse spleen apoferritin (Equus caballus, UniProt P02791).
T1 construct: gene FTL; native spleen apoferritin from Sigma-Aldrich, 24-mer, heavy and light chains in approximate mole ratio 1:6; with Ferritin heavy chain
T1 sequence (P02791 2-175): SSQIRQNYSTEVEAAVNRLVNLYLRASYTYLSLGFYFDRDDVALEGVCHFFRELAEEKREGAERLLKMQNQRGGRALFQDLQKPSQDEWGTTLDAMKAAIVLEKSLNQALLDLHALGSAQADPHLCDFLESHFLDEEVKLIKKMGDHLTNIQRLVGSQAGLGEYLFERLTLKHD
In words: isothermal titration calorimetry. It counts as binding. For orientation: In ITC the heat of successive injections is recorded.

Data set [1] deals with the molecule itself. The data set can be described thus: crystal structure; apoferritin co-crystallized with thiopental or pentobarbital; reservoir 0.2-1.6 M (NH4)2SO4, 0.1-0.275 M CdSO4, 18°C; space group F432.

Where two headings read alike, the source gives them in different places.

In the case of `CCC[C@@H](C)C1(CC)C(=O)NC(=S)NC1=O` [R-form of thiopental], the Kd at horse spleen apoferritin (read-out: K d) came to 29.3 ± 3.1 µM.

With `CCC[C@H](C)[C@@]1(CC)C(=O)N=C(S)NC1=O` [S-enantiomer of thiopental], the Kd on horse spleen apoferritin (read-out: K d) is 18.7 ± 0.9 µM. Turning to `CCCC(C)C1(CC)C(=O)NC(=S)NC1=O` (racemic) [Thiopental], the Kd on horse spleen apoferritin (read-out: Thiopental) worked out at 11 ± 0.9 µM. For `CCCC(C)C1(CC)C(=O)NC(=O)NC1=O` (racemic) [Pentobarbital], on horse spleen apoferritin, the Kd is 64.3 ± 5.5 µM.

B1: horse spleen apoferritin (natural protein, UniProt P02791 1-175, looked up)
chain: MSSQIRQNYSTEVEAAVNRLVNLYLRASYTYLSLGFYFDRDDVALEGVCHFFRELAEEKREGAERLLKMQNQRGGRALFQDLQKPSQDEWGTTLDAMKAAIVLEKSLNQALLDLHALGSAQADPHLCDFLESHFLDEEVKLIKKMGDHLTNIQRLVGSQAGLGEYLFERLTLKHD
notes: ferritin light chain of horse spleen apoferritin; only the light chain is modelled in the structures; The commercial apoferritin is a mixture of heavy and light chains in an approximate mole ratio of 1:6; Only the light chain is seen in the electron density, so the 24-mer is written here as light chains only; also called L-chain; L-protomers; source: bought: Sigma-Aldrich; purified by gel …
For orientation: stoichiometry N means the number of molecules, sites or subunits per partner or assembly. B1: the “stoichiometry N” value in data set [1] is 24.
